Earlier results, collected in patent publication US12290525B2, “5 alpha dihydrotestosterone formulations and associated methods of use and treatment” (priority 2022, dated 2025).

What was measured:
[1] = molecular target: estrogen receptor (ER) subtype ERβ (Homo sapiens, UniProt Q92731)
estrogen receptor (ER) subtype ERβ, sequence (Q92731 whole entry): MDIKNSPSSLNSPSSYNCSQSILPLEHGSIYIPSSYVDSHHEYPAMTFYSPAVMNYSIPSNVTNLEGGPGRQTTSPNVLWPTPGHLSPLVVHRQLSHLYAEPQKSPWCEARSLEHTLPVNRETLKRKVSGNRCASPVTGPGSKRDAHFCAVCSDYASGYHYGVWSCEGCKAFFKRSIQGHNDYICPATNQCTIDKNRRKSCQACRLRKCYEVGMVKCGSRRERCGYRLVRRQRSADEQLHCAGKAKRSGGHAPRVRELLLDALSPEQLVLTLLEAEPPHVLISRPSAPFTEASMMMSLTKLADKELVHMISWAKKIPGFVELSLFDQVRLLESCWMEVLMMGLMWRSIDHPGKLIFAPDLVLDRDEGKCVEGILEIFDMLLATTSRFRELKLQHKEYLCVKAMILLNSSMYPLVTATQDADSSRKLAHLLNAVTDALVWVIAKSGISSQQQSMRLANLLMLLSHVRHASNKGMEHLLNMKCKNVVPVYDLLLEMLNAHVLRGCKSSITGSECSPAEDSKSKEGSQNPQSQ

Structure (SMILES) | activity at ERβ [1] | activity at the GABAA receptor (GABAA receptor)
C[C@]12CC[C@H](O)C[C@@H]1CC[C@@H]1[C@@H]2CC[C@]2(C)[C@@H](O)CC[C@@H]12 [3β-androstanediol] | potent and selective agonist | –
C[C@]12CC[C@@H](O)C[C@@H]1CC[C@@H]1[C@@H]2CC[C@]2(C)[C@@H](O)CC[C@@H]12 [3α-Androstanediol, 3α-androstanediol] | – | potent positive allosteric modulator
